Reference: patent US4766133A, “(Bezimidazol-2-yl)-pyridinium compounds” (priority 1985, dated 1988)
Where two headings read alike, the source gives them in different places.

Tests used:
[1] = tested on: gastric acid secretion stimulated by 4-methylhistamine; test: gastric acid secretion-inhibiting activity (Heidenhain type pouch, 4-methylhistamine stimulated); format: in vivo, beagle hounds (dog); conditions: Canis lupus familiaris, read-out: Gastric acid secretion-inhibition, ED50
Experimental: The experimental procedure described hereinafter was used to determine the gastric acid secretion-inhibiting activity:
In the pouch there is fitted a steel cannula which is conducted externally through the abdominal wall. Before each experiment the animals receive no food for 18 hours, but receive water ad libitum. They are conscious and standing during the experiment and their gastric acid secretion is stimulated by the intravenous infusion of 4-methylhistamine, a selective agonist of the histamine H2 -receptors. The gastric acid production is determined in 15 minute fractions of the stomach pouch juioe. As soon as the gastric acid production has a constant value, the substances to be tested are administered orally as a dry powder filled into gelatine capsules.

[2] = tested on: indomethacin-induced lesions of the stomach; test: anti-ulcer activity (indomethacin-induced lesions of the stomach); format: in vivo; conditions: Rattus norvegicus, po, read-out: Anti-ulcer, ED50
Experimental: The experimental procedure described hereinafter was used to determine the anti-ulcer activity:
Groups each comprising 8 male rats with a body weight of 130-150 g are used for each dosage of a test substance. Before the beginning of the experiment the animals receive no food for 24 hours, but receive water ad libitum. Various dosages of the substances to be tested (suspended in 0.5% tragacanth) or the vehicle alone (controls) are administered twice perorally, namely 1 hour before and 2 hours after the peroral administration of 20 mg/kg of indomethacin. […] The animals are killed 6 hours after the first administration of the substanoe under investigation (or of the vehicle alone). The rats which remain protected from the occurrence of macroscopically visible lesions to the mucous membrane of the stomach are counted.

[3] = acute toxicity (single oral administration to mice); conditions: mouse, in vivo, read-out: Toxicity, LD 50
Source text: In the following Table there are given for a series of representative compounds of formula I the results of the testing with respect to their anti-ulcer activity and to their gastric secretion-inhibiting activity. Moreover, this Table contains data concerning the acute toxicity (LD50 in the case of single oral administration to mice).

[4] = conscious beagle hounds, Heidenhain type pouch, 4-methylhistamine i.v. infusion, oral dry powder in gelatine capsules, 50% inhibition
[5] = male rats, p.o. twice, 1 h before and 2 h after 20 mg/kg indomethacin p.o., 50% of animals protected from lesions

Compound	ED50 [1, 4]	ED50 [2, 5]	LD50 [3]	ED50 ([1]; po)	ED50 [2]
COc1cc[n+](-c2nc3cc4c(cc3[nH]2)C(C)(C)C(=O)C4(C)C)c(CSSCCC(N)C(=O)O)c1C.[Cl-] (racemic) [P, 2-[[[(RS)-3-Amino-3-carboxypropyl]dithio]methyl]-4-methoxy-3-methyl-1-(1,5,6,7-tetrahydro-5,5,7,7-tetramethyl-6-oxoindeno[5,6-d]imidazol-2-yl)pyridinium chloride]	4.1 mg/kg	1.9 mg/kg	312 to 625 mg/kg	–	–
CCCSSCc1c(C)c(OC)cc[n+]1-c1nc2ccc(C(F)(F)F)cc2[nH]1.[Cl-] [A, 2-[(propyldithio)methyl]-4-methoxy-3-methyl-1-[5-(trifluoromethyl)-2-benzimidazolyl]pyridinium chloride]	1.5 mg/kg	1.2 mg/kg	> 5000 mg/kg	–	–
COc1cc[n+](-c2nc3ccc(C(F)(F)F)cc3[nH]2)c(CSSC[C@H](N)C(=O)O)c1C.[Cl-] [B, 2-[[[(R)-2-Amino-2-carboxyethyl]dithio]methyl]-4-methoxy-3-methyl-1-[5-(trifluoromethyl)-2-benzimidazolyl]pyridinium chloride]	2.8 mg/kg	2.5 mg/kg	1250 to 2500 mg/kg	–	–
COc1cc[n+](-c2nc3cc(C(F)(F)F)ccc3[nH]2)c(CSSC[C@H](NC(=O)CC[C@H](N)C(=O)O)C(=O)NCC(=O)O)c1C [C, 2-[[[(R)-2-[(S)-4-Amino-4-carboxybutyramido]-2-[(carboxymethyl)carbamoyl]ethyl]dithio]methyl]-4-methoxy-3-methyl-1-[(5-trifluoromethyl)-2-benzimidazolyl]pyridinium chloride]	3 mg/kg	3 mg/kg	1250 to 2500 mg/kg	–	–
CCCCCCSSCc1c(C)c(OC)cc[n+]1-c1nc2ccc(C(F)(F)F)cc2[nH]1.[Cl-] [D, 2-[(Hexyldithio)methyl]-4-methoxy-3-methyl-1-[5-(trifluoromethyl) -2-benzimidazolyl]pyridinium chloride]	6.8 mg/kg	1.9 mg/kg	> 5000 mg/kg	–	–
COc1cc[n+](-c2nc3ccc(C(F)(F)F)cc3[nH]2)c(CSSc2ccccc2Cl)c1C.[Cl-] [E, 2-[[(o-Chlorophenyl)dithio]methyl]-4-methoxy-3-methyl-1-[5-(trifluoromethyl)-2-benzimidazolyl]pyridinium chloride]	6 mg/kg	2.1 mg/kg	> 5000 mg/kg	–	–
CCSSCc1c(C)c(OC)cc[n+]1-c1nc2ccc(C(F)(F)F)cc2[nH]1.[Cl-] [F, 2-[(Ethyldithio)methyl]-4-methoxy-3-methyl-1-[5-(trifluoromethyl)-2-benzimidazolyl]pyridinium chloride]	1.6 mg/kg	1.7 mg/kg	1250 to 2500 mg/kg	–	–
COc1cc[n+](-c2nc3cc(C(F)(F)F)ccc3[nH]2)c(CSSCCN)c1C [G, 2-[[(2-Aminoethyl)dithio]methyl]-4-methoxy-3-methyl-b 1-[5-(trifluoromethyl)-2-benzimidazolyl]pyridinium chloride]	1.5 mg/kg	2.3 mg/kg	312 to 625 mg/kg	–	–
COc1cc[n+](-c2nc3cc4c(cc3[nH]2)C(C)(C)C(=O)C4(C)C)c(CSSc2cccc(Cl)c2)c1C [H, 2-[[(m-Chlorophenyl)dithio]methyl]-4-methoxy-3-methyl-1-(1,5,6,7-tetrahydro-5,5,7,7-tetramethyl-6-oxoindeno[5,6d]imidazol-2-yl)pyridinium chloride]	6.2 mg/kg	1.8 mg/kg	1250 to 2500 mg/kg	–	–
COc1cc[n+](-c2nc3cc4c(cc3[nH]2)C(C)(C)C(=O)C4(C)C)c(CSSC[C@H](N)C(=O)O)c1C.[Cl-] [I, 2-[[[(R)-2-Amino-2-carboxyethyl]dithio]methyl]-4-methoxy-3-methyl-1-(1,5,6,7-tetrahydro-5,5,7,7-tetramethyl-6-oxoindeno[5,6-d]imidazol-2-yl)pyridinium chloride]	3.9 mg/kg	2.3 mg/kg	312 to 625 mg/kg	–	–
CCOC(=O)CC(SSCc1c(C)c(OC)cc[n+]1-c1nc2ccc(C(F)(F)F)cc2[nH]1)C(=O)OCC.[Cl-] (centres unmarked) [J, 2-[[[1,2-Bis-(ethoxycarbonyl)ethyl]dithio]methyl]-4-methoxy-3-methyl-1-[5-(trifluoromethyl)-2-benzimidazolyl]pyridinium chloride]	2.2 mg/kg	2.4 mg/kg	1250 to 2500 mg/kg	–	–
CCSSCc1c(C)c(OC)cc[n+]1-c1nc2cc3c(cc2[nH]1)C(C)(C)C(=O)C3(C)C.[Cl-] [K, 2-[(Ethyldithio)methyl]-4-methoxy-3-methyl-1-(1,5,6,7-tetrahydro-5,5,7,7-tetramethyl-6-oxoindeno[5,6-d]-imidazol-2-yl)pyridinium chloride]	6.5 mg/kg	2.3 mg/kg	312 to 625 mg/kg	–	–
CCCSSCc1c(C)c(OC)cc[n+]1-c1nc2cc3c(cc2[nH]1)C(C)(C)C(=O)C3(C)C.[Cl-] [L, 4-Methoxy-3-methyl-2-[(propyldithio)methyl]-1-(1,5,6,7-tetrahydro-5,5,7,7-tetramethyl-6-oxoindeno[5,6-d]-imidazol-2-yl)pyridinium chloride]	3.4 mg/kg	1.6 mg/kg	312 to 625 mg/kg	–	–
CCOC(=O)[C@@H](N)CSSCc1c(C)c(OC)cc[n+]1-c1nc2cc3c(cc2[nH]1)C(C)(C)C(=O)C3(C)C.[Cl-] [M, 2-[[[(R)-2-Amino-2-(ethoxycarbonyl)ethyl]dithio]methyl]-4-methoxy-3-methyl-1-(1,5,6,7-tetrahydro-5,5,7,7-tetramethyl-6-oxoindeno[5,6-d]imidazol-2-yl)pyridinium chloride]	4.6 mg/kg	1.6 mg/kg	312 to 625 mg/kg	–	–
COc1cc[n+](-c2nc3cc4c(cc3[n-]2)C(C)(C)C(=O)C4(C)C)c(CSSCCN(C)C)c1C [N]	–	–	–	3.7 mg/kg	1.5 mg/kg
COc1cc[n+](-c2nc3cc4c(cc3[nH]2)C(C)(C)C(=O)C4(C)C)c(CSSCCO)c1C.[Cl-] [O, 2-[[(2-Hydroxyethyl)dithio]methyl]-4-methoxy-3-methyl-1-(1,5,6,7-tetrahydro-5,5,7,7-tetramethyl-6-oxoindeno[5,6-d]imidazol-2-yl)pyridinium chloride]	2.9 mg/kg	2.3 mg/kg	312 to 625 mg/kg	–	–
COc1cc[n+](-c2nc3cc4c(cc3[nH]2)C(C)(C)C(=O)C4(C)C)c(CSSC2CCCC2)c1C.[Cl-] [Q, 2-[(Cyclopentyldithio)methyl]-4-methoxy-3-methyl-1-(1,5,6,7-tetrahydro-5,5,7,7-tetramethyl-6-oxoindeno[5,6-d]imidazol-2-yl)pyridinium chloride]	4.9 mg/kg	1.6 mg/kg	312 to 625 mg/kg	–	–
